# Experimental data reported in publication PMC12010937, “Evaluation of FXR Activity in Pollutants Identified in Sewage Sludge and Subsequent in Vitro and in Vivo Characterization of Metabolic Effects of Triphenyl Phosphate” (Environmental Health Perspectives, 2025).
# Read-outs that look alike come from different tables or passages of the source.
# System: C57BL/6N mice
# Settings: TPHP-L group, liver
# [1] = adduct [M+Na]+, first of two TG 52:3 lines
# [2] = adduct [M+Na]+, second of two TG 52:3 lines
structure (smiles),measurement,setting,value
"O=P(Oc1ccccc1)(Oc1ccccc1)Oc1ccccc1 [TPHP, triphenyl phosphate]",Z-score of CAR 6:0,adduct [M+H]+,0.06
same,Z-score of CAR 10:0,adduct [M+H]+,0.42
same,Z-score of CAR 12:0,adduct [M+H]+,0.80
same,Z-score of CAR 16:2,adduct [M+H]+,-0.06
same,Z-score of CAR 18:2,adduct [M+H]+,-0.03
same,Z-score of CAR 18:4,adduct [M+H]+,0.78
same,Z-score of CAR 20:4,adduct [M+H]+,0.82
same,Z-score of NAE 14:0,adduct [M+H]+,-0.48
same,Z-score of NAE 20:5,adduct [M+H]+,1.00
same,Z-score of PC 40:6,adduct [M+H]+,-0.17
same,Z-score of PS 36:4,adduct [M+H]+,0.68
same,Z-score of SM 27:5;O2,adduct [M+H]+,0.55
same,Z-score of SM 28:3;O3,adduct [M+H]+,0.44
same,Z-score of SM 31:3;O3,adduct [M+H]+,-0.11
same,Z-score of SM 41:2;O2,adduct [M+H]+,0.71
same,average intensity of CAR 6:0,adduct [M+H]+,2396721
same,average intensity of CAR 10:0,adduct [M+H]+,1504841
same,average intensity of CAR 12:0,adduct [M+H]+,2823213
same,average intensity of CAR 16:2,adduct [M+H]+,1645671
same,average intensity of CAR 18:2,adduct [M+H]+,11661319
same,average intensity of CAR 18:4,adduct [M+H]+,10920113
same,average intensity of CAR 20:4,adduct [M+H]+,36994205
same,average intensity of NAE 14:0,adduct [M+H]+,681808
same,average intensity of NAE 20:5,adduct [M+H]+,53457329
same,average intensity of PC 40:6,adduct [M+H]+,25730542
same,average intensity of PS 36:4,adduct [M+H]+,1577436
same,average intensity of SM 27:5;O2,adduct [M+H]+,18375860
same,average intensity of SM 28:3;O3,adduct [M+H]+,1750893
same,average intensity of SM 31:3;O3,adduct [M+H]+,1688236
same,average intensity of SM 41:2;O2,adduct [M+H]+,9894007
same,Z-score of BMP 25:4,adduct [M+NH4]+,-0.15
same,Z-score of BMP 30:5,adduct [M+NH4]+,-0.42
same,Z-score of BMP 38:4,adduct [M+NH4]+,-0.33
same,Z-score of PG 21:2,adduct [M+NH4]+,-0.09
same,Z-score of PI 39:10,adduct [M+NH4]+,-0.15
same,Z-score of TG 48:11,adduct [M+NH4]+,-0.30
same,Z-score of TG 55:4,adduct [M+NH4]+,-0.04
same,average intensity of BMP 25:4,adduct [M+NH4]+,28243710
same,average intensity of BMP 30:5,adduct [M+NH4]+,997136
same,average intensity of BMP 38:4,adduct [M+NH4]+,9007436
same,average intensity of PG 21:2,adduct [M+NH4]+,4648685
same,average intensity of PI 39:10,adduct [M+NH4]+,2117103
same,average intensity of TG 48:11,adduct [M+NH4]+,18422444
same,average intensity of TG 55:4,adduct [M+NH4]+,5767515
same,Z-score of Cer 42:1;O2,adduct [M+Na]+,-0.14
same,Z-score of Cer 64:6;O2,adduct [M+Na]+,0.49
same,Z-score of DG 19:1,adduct [M+Na]+,-0.58
same,Z-score of DG 26:5,adduct [M+Na]+,-0.57
same,Z-score of DG 26:6,adduct [M+Na]+,-0.39
same,Z-score of PC 29:5,adduct [M+Na]+,-0.26
same,Z-score of PC 38:6,adduct [M+Na]+,-0.37
same,Z-score of PC 42:9,adduct [M+Na]+,-0.33
same,Z-score of PS 40:7,adduct [M+Na]+,0.24
same,Z-score of TG 52:2,adduct [M+Na]+,0.37
same,Z-score of TG 52:4,adduct [M+Na]+,0.20
same,average intensity of Cer 42:1;O2,adduct [M+Na]+,2208919
same,average intensity of Cer 64:6;O2,adduct [M+Na]+,16081083
same,average intensity of DG 19:1,adduct [M+Na]+,5508
same,average intensity of DG 26:5,adduct [M+Na]+,1202226
same,average intensity of DG 26:6,adduct [M+Na]+,565410
same,average intensity of PC 29:5,adduct [M+Na]+,8118187
same,average intensity of PC 38:6,adduct [M+Na]+,13132954
same,average intensity of PC 42:9,adduct [M+Na]+,1167997
same,average intensity of PS 40:7,adduct [M+Na]+,3607887
same,average intensity of TG 52:2,adduct [M+Na]+,9167552
same,average intensity of TG 52:4,adduct [M+Na]+,2497450
same,Z-score of TG 52:3,[1],0.19
same,average intensity of TG 52:3,[1],1036928
same,Z-score of TG 52:3,[2],0.18
same,average intensity of TG 52:3,[2],8512501
same,Z-score of Cer 40:1;O2,adduct [M-H]-,-0.23
same,Z-score of Cer 41:1;3O(2OH),adduct [M-H]-,-0.38
same,Z-score of Cer 42:1;3O(2OH),adduct [M-H]-,-0.39
same,Z-score of Cer 43:1;3O(2OH),adduct [M-H]-,-0.38
same,Z-score of FA 10:1,adduct [M-H]-,-0.53
same,Z-score of FA 14:2,adduct [M-H]-,0.22
same,Z-score of FA 16:2;O,adduct [M-H]-,0.94
same,Z-score of FA 19:2;O2,adduct [M-H]-,0.68
same,Z-score of PG 34:2,adduct [M-H]-,-0.56
same,Z-score of PG 44:12,adduct [M-H]-,-0.57
same,Z-score of PI 36:3,adduct [M-H]-,-0.53
same,Z-score of PI 38:4,adduct [M-H]-,0.83
same,average intensity of Cer 40:1;O2,adduct [M-H]-,383914
same,average intensity of Cer 41:1;3O(2OH),adduct [M-H]-,1471085
same,average intensity of Cer 42:1;3O(2OH),adduct [M-H]-,280519
same,average intensity of Cer 43:1;3O(2OH),adduct [M-H]-,206714
same,average intensity of FA 10:1,adduct [M-H]-,231265
same,average intensity of FA 14:2,adduct [M-H]-,1600712
same,average intensity of FA 16:2;O,adduct [M-H]-,1172357
same,average intensity of FA 19:2;O2,adduct [M-H]-,7389373
same,average intensity of PG 34:2,adduct [M-H]-,228532
same,average intensity of PG 44:12,adduct [M-H]-,36906
same,average intensity of PI 36:3,adduct [M-H]-,498699
same,average intensity of PI 38:4,adduct [M-H]-,49874871
